US20120225123A1, “Use of Synergistic Combinations of an Avermectin and an Antineoplastic Compounds for the Treatment of Hematological Malignancies” (UNIVERSITY HEALTH NETWORK, priority 2009, published 2012)
Peptide text beside a SMILES is read from it. * marks the point of attachment. Cbz = O=C(OCc1ccccc1)*; CH2F = FC*

How the values were obtained:
OCI-AML2 cells [1] = test: Cell death, viability and cell cycle in OCI-AML2 cells; assay type: cell-based, human; details: for effect of calcium chelation on IVM-induced cell death: chelation of intra and extracellular calcium
Method: Cell growth and viability was assessed by the MTS assay (Promega, Madison, Wis.) according to the manufacturer's instructions and as previously described.^12 Cell death was measured by Annexin V-fluoroscein isothiocyanate (FITC) and Propidium Iodide (PI; Biovision Research Products, Mountain View, Calif.) staining and flow cytometry according to the manufacturer's instructions and as previously described.^13 To identify CD34+ cells, a normal PBSC sample was co-stained with PE-anti-CD34+ (Beckman Coulter, Marseille France), and APC-anti-CD45 (Becton Dickenson, San Jose Calif.).
Cell cycle analysis was performed as described previously.^15 Briefly, cells were harvested, washed with cold PBS, and resuspended in 80% cold ethanol. Cells were then treated with 100 ng/mL DNase-free RNase A (Invitrogen) at 37° C. for 30 min, washed with cold PBS, and resuspended in PBS with 50 μg/mL propidium iodide. DNA content was analyzed by flow cytometry (FACSCalibur; Becton Dickinson). The percentage of cells in each phase of the cell cycle was calculated with FlowJo version 8.8 (TreeStar, Ashland, Oreg.).

[2] = tested on: STAT1 and target genes IFIT3, OAS1 and TRIM22 in OCI-AML2 cells; test: Gene expression by Q-RT-PCR, OCI-AML2; assay type: cell-based, human; details: pre-treatment with NAC
Method: Leukemia cells were treated with buffer control or ivermectin (3 μM) for 30 and 40 hours. After treatment, cells were harvested, total RNA was isolated. Total RNA (10 μg) was used for cRNA amplification using the Invitrogen SuperScript kit (Life Technologies, Inc., Burlington, ON, Canada). Amplification and biotin labeling of antisense cRNA was performed using the Enzo® BioArray™ High Yield™ RNA transcript labeling kit (Enzo Diagnostics, Farmingdale, N.Y., USA), according to the manufacturer's instructions. RNA was then hybridized to Affymetrix HG U133 Plus 2.0 gene expression oligonucleotide arrays (Affymetrix, Santa Clara, Calif., USA). Microarray slides were scanned using the GeneArray 2500 scanner (Agilent Technologies). Microarray data were analyzed using GeneSpring GX v10.0 (Agilent), and lists of genes deregulated>2-fold after 30 and 40 hr ivermectin treatment were derived. Pathways and gene ontology analyses were carried out using Ingenuity Pathways Analysis (www.ingenuity.com); and the Database for Annotation, Visualization and Integrated Discovery (DAVID; http://david.abcc.ncifcrf.gov). […]
Gene expression changes were evaluated in OCI AML2, 0937, HL60, DU145 and PPC-1 cells by real-time Q-RT-PCRas described previously^15, 47. The expression level of STAT1A, STAT1B, TRIM22, OAS1 and IFIT3 before and after incubation of leukemia cells with ivermectin was evaluated.

leukemia cells = test: Combination of IVM with albendazole, combination index; assay type: cell-based
OCI-AML2 cells [3] = test: Reactive oxygen species, Carboxy-H2DCFDA staining, OCI-AML2; assay type: cell-based, human; details: increasing concentrations, flow cytometry
Method: Data were analyzed with FlowJo version 8.8 (TreeStar, Ashland, Oreg.).

In the case of CC(=O)OCOC(=O)CN(CC(=O)OCOC(C)=O)c1ccccc1OCCOc1ccccc1N(CC(=O)OCOC(C)=O)CC(=O)OCOC(C)=O [BAPTA-AM], the “effect of calcium chelation on IVM-induced cell death” value (OCI-AML2 cells [1]) is reported as “did not inhibit IVM-induced cell death”.
In the case of O=C(O)CN(CCN(CC(=O)O)CC(=O)O)CC(=O)O [EDTA], the “effect of calcium chelation on IVM-induced cell death” value (OCI-AML2 cells [1]) is reported as “did not inhibit IVM-induced cell death”.
In the case of CC(=O)N[C@@H](CS)C(=O)O [NAC, N-acetyl-L-Cysteine], the “effect of NAC pre-treatment on ivermectin upregulation of STAT1 genes” value [2] is reported as “blocked their upregulation” and the “effect of free radical scavenger on IVM-induced cell death” value (OCI-AML2 cells [1]; treated with IVM along with NAC) is reported as “abrogated IVM-induced cell death”.
CCCSc1ccc2nc(NC(=O)OC)[nH]c2c1 [albendazole] was tested, and the “CI value at the ED25” value (leukemia cells) was 1.59, the “CI value at the ED75” value (leukemia cells) was 0.89 and the “drug interaction with IVM” value (leukemia cells) was “antagonized the anti-leukemic effects of IVM”.
Nc1ccn([C@@H]2O[C@H](CO)[C@@H](O)[C@@H]2O)c(=O)n1 [cytarabine] was tested, and the ROS production (OCI-AML2 cells [3]) was “increase ROS production”.
COc1cccc2c1C(=O)c1c(O)c3c(c(O)c1C2=O)C[C@@](O)(C(C)=O)C[C@@H]3O[C@H]1C[C@H](N)[C@H](O)[C@H](C)O1 [daunorubicin] was tested, and the ROS production (OCI-AML2 cells [3]) was “increase ROS production”.
For COC(=O)C[C@H](NC(=O)[C@H](C)NC(=O)[C@@H](NC(=O)OCc1ccccc1)C(C)C)C(=O)CF [z-VAD-fmk] (Cbz-Val-Ala-Asp(OMe)-CH2F), the “effect of pan-caspase inhibitor co-treatment on ivermectin-induced cell death” value (OCI-AML2 cells [1]; co-treatment with ivermectin, 24 hours, Annexin V-PI) was “abrogated cell death”.
